Assay results reported in patent US4937390A, “Compound useful for the production of 3-deoxy-3-fluoro-myo-inositol” (University of Pittsburgh, priority 1989, dated 1990).

Columns and labels:
PC12 cells [1] = experiment: Effect on cell size (protein per cell, Lowry) in PC12 cells; type: cell-based, rat; settings: for effect on cell cycle / cell division: chronically treated PC12 cells
Source text: As cells grow in culture, the size of an individual cell varies in a fairly predictable way. The size of a cell can be expressed as the amount of protein present per cell. […] Immediately after mitosis, the cell size drops considerably, frequently to levels approximately half of the pre-mitotic level.
By investigating the size of a cell, it is possible to determine at which point within the cell cycle inhibitors of cell replication are exerting their effects. Accordingly, we investigated the effect of the 1- and 3-fluoro-myo-inositol analogs on the size of cells chronically treated with such analogs.
Cells were grown and treated with 1- and 3-fluoro-myo-inositol analogs as described in Example XIII. On the days indicated, cells were gently harvested without disruption, and the number of cells counted in triplicate in a cell counting chamber. Following determination of the number of cells per sample, the remainder of the cells were pelleted in a microcentrifuge as described hereinabove, and the protein in the sample was determined by the method of Lowry. Thus, it was possible to derive from these two data sets the amount of protein per cell, which is expressed as nanograms of protein per cell, as indicated in Table 3: […]

PC12 cells [2] = experiment: Uptake and incorporation of [3H]myo-inositol into PC12 cells following treatment with inositol analogs; type: cell-based, rat; settings: for Bound [3H]myo-inositol (incorporated into membranes) / Free [3H]myo-inositol (cytoplasm): one hour [3H]myo-inositol
Procedure: Since myo-inositol must be incorporated into the cellular plasma membranes in order for it to serve its role as a second messenger, we therefore verified the ability of the 1- and 3-fluoro-myo-inositol analogs to perturb the incorporation of myo-inositol into cellular plasma membranes by the enzyme […] CDP-diacylglycerol-inositol phosphatidylytransferase (phosphatidylinositolsynthesis).
These tests were conducted by treating cells for either 1, 3, 5, or 7 days with the myo-inositol analogs, followed by a brief exposure to radiolabeled myo-inositol ([^3 H]myo-inositol). The extent of incorporation of tritiated myo-inositol would, therefore, reflect the extent to which phosphatidylinositol and its phosphorylated analogs are deficient in the cellular plasma membranes.
Cells were grown as described hereinabove. Twenty-four hours after plating, the medium was changed and cells were exposed to either inositol free medium (Control 2) or medium containing either the 1- or the 3-fluoro-myo-inositol analog. At four different time points --1, 3, 5, and 7 days--cells were tested for their ability to incorporate radiolabeled [^3 H]myo-inositol. This test was conducted by removing the medium and replacing it with RPMI medium (both myo-inositol and serum free) containing only [^3 H]myo-inositol. The cells were exposed to this medium for a period of one hour, following which they were washed three times with phosphate-buffered saline containing excess unlabeled myo-inositol (10 mM). Cells were lysed by treatment with trichloroacetic acid (TCA) and sonicated to insure complete disruption. The cellular homogenate was then collected and spun in a microfuge tube at 12,000 r.p.m. for 15 min. Samples from both the pellet and supernatant were then obtained and the levels of radioactivity in each were determined. Radioactivity in the supernatant corresponded to the amount of free [^3 H]myo-inositol in the cytoplasm of the cell, whereas the radioactivity present in the TCA-precipated pellet represented [^3 H]myo-inositol incorporated into the cellular plasma membranes.
Cells were treated for the indicated time periods with the inositol
analogs, and then exposed for one hour to [^3 H]myoinositol. Numbers
represent DPM/10^6 cells.

**Q.** For `O[C@@H]1[C@@H](O)[C@@H](O)[C@@H](F)[C@H](O)[C@H]1O` [1-deoxy-1-fluoro-myo-inositol], which “cell size relative to controls” value (PC12 cells [1]; cells arrested in pre-mitotic state) is on record?
**A.** The value was “approximately 2 fold”.

**Q.** And the “effect on cell cycle / cell division” value (PC12 cells [1])?
**A.** The value was “arrested in a pre-mitotic state (termed late G2)”.

**Q.** And the “Cell size (protein per cell)” value (PC12 cells [1]; treatment duration 1 day)?
**A.** The value was 0.082 ± 0.01 nanograms protein/cell.

**Q.** And the “Cell size (protein per cell)” value (PC12 cells [1]; treatment duration 3 days)?
**A.** The value was 0.135 ± 0.01 nanograms protein/cell.

**Q.** And the “Cell size (protein per cell)” value (PC12 cells [1]; treatment duration 5 days)?
**A.** The value was 0.160 ± 0.01 nanograms protein/cell.

**Q.** What about the “Cell size (protein per cell)” value (PC12 cells [1]; treatment duration 7 days) of the same compound?
**A.** The value was 0.168 ± 0.02 nanograms protein/cell.

**Q.** What about the “Bound [3H]myo-inositol (incorporated into membranes)” value (“Bound [3H]myo-inositol” below) (PC12 cells [2]; Day 1 of treatment) of the same compound?
**A.** The value was 392 ± 16 DPM/10^6 cells.

**Q.** What about the “Free [3H]myo-inositol (cytoplasm)” value (PC12 cells [2]; Day 1 of treatment) of the same compound?
**A.** The value was 8365 ± 787 DPM/10^6 cells.

**Q.** What about the “Bound [3H]myo-inositol” value (PC12 cells [2]; Day 3 of treatment) of the same compound?
**A.** Its value is 4614 ± 141 DPM/10^6 cells.

**Q.** And the “Free [3H]myo-inositol (cytoplasm)” value (PC12 cells [2]; Day 3 of treatment)?
**A.** Its value is 4751 ± 291 DPM/10^6 cells.

**Q.** And the “Bound [3H]myo-inositol” value (PC12 cells [2]; Day 5 of treatment)?
**A.** The value was 2143 ± 314 DPM/10^6 cells.

**Q.** What about the “Free [3H]myo-inositol (cytoplasm)” value (PC12 cells [2]; Day 5 of treatment) of the same compound?
**A.** Its value is 4295 ± 627 DPM/10^6 cells.

**Q.** And the “Bound [3H]myo-inositol” value (PC12 cells [2]; Day 7 of treatment)?
**A.** The value was 3726 ± 588 DPM/10^6 cells.

**Q.** What about the “Free [3H]myo-inositol (cytoplasm)” value (PC12 cells [2]; Day 7 of treatment) of the same compound?
**A.** The value was 7569 ± 757 DPM/10^6 cells.

**Q.** With `O[C@@H]1[C@@H](O)[C@H](O)[C@@H](F)[C@@H](O)[C@H]1O` [3-deoxy-3-fluoro-myo-inositol] as the compound, how does the “cell size relative to control cells” value (PC12 cells [1]; by day seven) read?
**A.** The value was “about 3.5 times”.

**Q.** And the “effect on cell cycle / cell division” value (PC12 cells [1])?
**A.** The value was “continued to increase steadily in size without undergoing cell division”.

**Q.** What about the “Cell size (protein per cell)” value (PC12 cells [1]; treatment duration 1 day) of the same compound?
**A.** The value was 0.086 ± 0.01 nanograms protein/cell.

**Q.** What about the “Cell size (protein per cell)” value (PC12 cells [1]; treatment duration 3 days) of the same compound?
**A.** The value was 0.259 ± 0.01 nanograms protein/cell.

**Q.** And the “Cell size (protein per cell)” value (PC12 cells [1]; treatment duration 5 days)?
**A.** Its value is 0.320 ± 0.01 nanograms protein/cell.

**Q.** What about the “Cell size (protein per cell)” value (PC12 cells [1]; treatment duration 7 days) of the same compound?
**A.** The value was 0.343 ± 0.03 nanograms protein/cell.

**Q.** And the “level of radioactivity-labeled myo-inositol incorporated into the cellular plasma membranes” value (PC12 cells [2])?
**A.** Its value is “quite low”.

**Q.** What about the “Bound [3H]myo-inositol” value (PC12 cells [2]; Day 1 of treatment) of the same compound?
**A.** Its value is 354 ± 10 DPM/10^6 cells.

**Q.** What about the “Free [3H]myo-inositol (cytoplasm)” value (PC12 cells [2]; Day 1 of treatment) of the same compound?
**A.** The value was 3326 ± 253 DPM/10^6 cells.

**Q.** What about the “Bound [3H]myo-inositol” value (PC12 cells [2]; Day 3 of treatment) of the same compound?
**A.** Its value is 761 ± 42 DPM/10^6 cells.

**Q.** What about the “Free [3H]myo-inositol (cytoplasm)” value (PC12 cells [2]; Day 3 of treatment) of the same compound?
**A.** The value was 2929 ± 189 DPM/10^6 cells.

**Q.** What about the “Bound [3H]myo-inositol” value (PC12 cells [2]; Day 5 of treatment) of the same compound?
**A.** The value was 414 ± 52 DPM/10^6 cells.

**Q.** What about the “Free [3H]myo-inositol (cytoplasm)” value (PC12 cells [2]; Day 5 of treatment) of the same compound?
**A.** Its value is 2900 ± 383 DPM/10^6 cells.

**Q.** And the “Bound [3H]myo-inositol” value (PC12 cells [2]; Day 7 of treatment)?
**A.** The value was 676 ± 113 DPM/10^6 cells.

**Q.** And the “Free [3H]myo-inositol (cytoplasm)” value (PC12 cells [2]; Day 7 of treatment)?
**A.** Its value is 4095 ± 161 DPM/10^6 cells.
